According to patent EP3807270B1, “NOVEL HETEROARYL HETEROCYCLYL COMPOUNDS FOR THE TREATMENT OF AUTOIMMUNE DISEASE” (F. Hoffmann-La Roche AG, priority 2018, dated 2019):

What follows are molecules tested against T1, human TLR8 (Homo sapiens, UniProt Q9NR97) (assay: HEK293-Blue-hTLR-8 cells assay (SEAP reporter, R848 stimulation)). Conditions: HEK293-Blue-hTLR8 cells, R848, 20 hrs; read-out: HEK/hTLR8 IC50.
T1 construct: host or cells: HEK293 (HEK-Blue)
T1 sequence (Q9NR97 27-1041): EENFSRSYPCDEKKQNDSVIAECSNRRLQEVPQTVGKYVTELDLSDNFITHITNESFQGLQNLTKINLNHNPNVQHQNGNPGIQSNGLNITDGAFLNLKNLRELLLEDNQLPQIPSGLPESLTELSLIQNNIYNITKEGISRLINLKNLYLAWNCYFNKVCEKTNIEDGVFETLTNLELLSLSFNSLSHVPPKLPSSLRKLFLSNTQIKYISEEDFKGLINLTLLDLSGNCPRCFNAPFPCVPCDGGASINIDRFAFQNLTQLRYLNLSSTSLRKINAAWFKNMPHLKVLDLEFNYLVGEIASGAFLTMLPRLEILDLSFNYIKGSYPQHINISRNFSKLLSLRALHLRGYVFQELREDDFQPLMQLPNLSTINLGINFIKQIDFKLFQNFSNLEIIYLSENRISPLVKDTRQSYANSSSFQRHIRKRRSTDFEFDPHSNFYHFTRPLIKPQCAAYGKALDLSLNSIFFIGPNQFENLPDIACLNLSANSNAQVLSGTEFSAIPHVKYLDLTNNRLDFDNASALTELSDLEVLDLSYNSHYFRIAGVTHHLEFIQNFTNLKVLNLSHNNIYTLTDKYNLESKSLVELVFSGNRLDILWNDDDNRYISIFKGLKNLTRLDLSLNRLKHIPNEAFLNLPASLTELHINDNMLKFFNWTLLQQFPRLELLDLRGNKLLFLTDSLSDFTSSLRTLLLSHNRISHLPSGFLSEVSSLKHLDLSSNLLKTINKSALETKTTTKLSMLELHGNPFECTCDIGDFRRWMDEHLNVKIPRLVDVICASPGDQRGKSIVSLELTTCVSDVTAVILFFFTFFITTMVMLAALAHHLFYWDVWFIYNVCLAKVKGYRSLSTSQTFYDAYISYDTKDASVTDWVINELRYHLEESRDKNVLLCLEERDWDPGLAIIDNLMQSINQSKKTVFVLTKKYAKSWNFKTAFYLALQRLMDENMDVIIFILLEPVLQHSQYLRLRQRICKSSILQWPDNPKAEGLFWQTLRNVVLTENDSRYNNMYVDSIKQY
Assay type: cell-based
Text: A stable HEK293-Blue-hTLR-8 cell line was purchased from InvivoGen (Cat.#: hkb-htlr8, San Diego, California, USA). These cells were originally designed for studying the stimulation of human TLR8 by monitoring the activation of NF-κB. A SEAP (secreted embryonic alkaline phosphatase) reporter gene was placed under the control of the IFN-β minimal promoter fused to five NF-κB and AP-1-binding sites. The SEAP was induced by activating NF-κB and AP-1 via stimulating HEK-Blue hTLR8 cells with TLR8 ligands. Therefore, the reporter expression was declined by TLR8 antagonist under the stimulation of a ligand, such as R848, for incubation of 20 hrs. The cell culture supernatant SEAP reporter activity was determined using QUANTI-Blue™ kit (Cat.#: rep-qb1, Invivogen, San Diego, Ca, USA) at a wavelength of 640 nm, a detection medium that turns purple or blue in the presence of alkaline phosphatase.
HEK293-Blue-hTLR8 cells were incubated at a density of 250,000-450,000 cells/mL in a volume of 170 µL in a 96-well plate in Dulbecco's Modified Eagle's medium (DMEM) containing 4.5 g/L glucose, 50 U/mL penicillin, […], […], 2 mM L-glutamine, 10% (v/v) heat-inactivated fetal bovine serum with addition of 20 µL test compound in a serial dilution in the presence of final DMSO at 1% and 10 µL of 60uM R848 in above DMEM, perform incubation under 37 °C in a CO2 incubator for 20 hrs. Then 20 µL of the supernatant from each well was incubated with 180 µL Quanti-blue substrate solution at 37°C for 2 hrs and the absorbance was read at 620-655 nm using a spectrophotometer. The signaling pathway that TLR8 activation leads to downstream NF-κB activation has been widely accepted, and therefore similar reporter assay was modified for evaluating TLR8 antagonist.

Row | IC50 [nM] | SMILES
1 | 22 | C[C@@H]1CN(c2ccc(C#N)c3ncccc23)C[C@H](CN2CCN(c3ccc4c(c3)CNC4)C(CO)C2)O1 (stereo partly drawn) [Example 13, 5-[(2S,6R)-2-[[3-(hydroxymethyl)-4-isoindolin-5-yl-piperazin-1-yl]methyl]-6-methyl-morpholin-4-yl]quinoline-8-carbonitrile]
2 | 5 | C[C@@H]1CN(c2ccc(C#N)c3ncccc23)C[C@H](CN2CCN(c3cc4c(cn3)C[C@H](C)NC4)CC2)O1 (single isomer, unassigned) [Example 76]
3 | 7 | C[C@@H]1CN(c2ccc(C#N)c3ncccc23)C[C@H](CN2CCN(c3ccc4c(n3)CNC4)CC2)O1 [Example 30, 5-[(2S,6R)-2-[[4-(6,7-dihydro-5H-pyrrolo[3,4-b]pyridin-2-yl)piperazin-1-yl]methyl]-6-methyl-morpholin-4-yl] quinoline-8-carbonitrile]
4 | 12 | C[C@@H]1CN(c2ccc(C#N)c3ncccc23)C[C@H](CN2CCCN(c3ncc4c(n3)CCNC4)CC2)O1 [Example 39, 5-[(2R,6S)-2-methyl-6-[[4-(5,6,7,8-tetrahydropyrido[4,3-d]pyrimidin-2-yl)-1,4-diazepan-1-yl]methyl]morpholin-4-yl]quinoline-8-carbonitrile]
5 | < 3 | C[C@@H]1CN(c2ccc(C#N)c3ncccc23)C[C@H](CN2CCN(c3nc4c(s3)CNCC4)CC2)O1 [Example 31, 5-[(2R,6S)-2-methyl-6-[[4-(4,5,6,7-tetrahydrothiazolo[5,4-c]pyridin-2-yl)piperazin-1-yl]methyl]morpholin-4-yl]quinoline-8-carbonitrile]
6 | 4 | C[C@@H]1CN(c2ccc(C#N)c3ncccc23)C[C@H](CN2CCN(c3cc4c(cn3)CCN[C@H]4C)CC2)O1 (single isomer, unassigned) [Example 75]
7 | < 3 | C[C@@H]1CN(c2ccc(C#N)c3ncsc23)C[C@H](CN2CCN(c3cnc4c(c3)CNC4)CC2)O1 [Example 8, 7-[(2S,6R)-2-[[4-(6,7-dihydro-5H-pyrrolo[3,4-b]pyridin-3-yl)piperazin-1-yl]methyl]-6-methyl-morpholin-4-yl]-1,3-benzothiazole-4-carbonitrile]
8 | 15 | COC1CNCc2ccc(N3CCN(C[C@H]4CN(c5ccc(C#N)c6ncccc56)C[C@@H](C)O4)CC3)cc21 (stereo partly drawn) [Example 58, 5-[(2S,6R)-2-[[4-(4-methoxy-1,2,3,4-tetrahydroisoquinolin-6-yl)piperazin-1-yl]methyl]-6-methyl-morpholin-4-yl]quinoline-8-carbonitrile]
9 | 6 | C[C@@H]1CN(c2ccc(C#N)c3ncccc23)C[C@H](CN2CCN(c3ccc4c(n3)CN[C@@H]4C)CC2)O1 (single isomer, unassigned) [Example 64]
10 | 2 | C[C@@H]1CN(c2ccc(C#N)c3nccnc23)C[C@H](CN2CCN(c3ccc4c(n3)CN[C@@H]4C)CC2)O1 (single isomer, unassigned) [Example 79]
11 | 54 | C[C@@H]1CN(c2ccc(C#N)c3ncccc23)C[C@H](CNC2CN(c3cnc4c(c3)CNC4)C2)O1 [Example 43, 5-[(2S,6R)-2-[[[1-(6,7-dihydro-5H-pyrrolo[3,4-b]pyridin-3-yl)azetidin-3-yl]amino]methyl]-6-methyl-morpholin-4-yl]quinoline-8-carbonitrile]
12 | 11 | C[C@@H]1CN(c2ccc(C#N)c3ncccc23)C[C@H](CN2CCCN(c3nc4c(s3)CNCC4)CC2)O1 [Example 33, 5-[(2R,6S)-2-methyl-6-[[4-(4,5,6,7-tetrahydrothiazolo[5,4-c]pyridin-2-yl)-1,4-diazepan-1-yl]methyl]morpholin-4-yl]quinoline-8-carbonitrile]

Second part, the molecule before the results:

Row | SMILES | IC50 [nM]
13 | C[C@@H]1CN(c2ccc(C#N)c3ncccc23)C[C@H](CN2CCC(Nc3ccc4c(c3)CNC4)C2)O1 (stereo partly drawn) [Example 38, 5-[(2S,6R)-2-[[3-(isoindolin-5-ylamino)pyrrolidin-1-yl]methyl]-6-methyl-morpholin-4-yl]quinoline-8-carbonitrile] | 50
14 | C[C@@H]1CN(c2ccc(C#N)c3ncccc23)C[C@H](CN2CC3(C2)CN(c2cnc4c(c2)CCNC4)CCO3)O1 [Example 46, 5-[(2R,6S)-2-methyl-6-[[8-(5,6,7,8-tetrahydro-1,7-naphthyridin-3-yl)-5-oxa-2,8-diazaspiro[3.5]nonan-2-yl]methyl]morpholin-4-yl]quinoline-8-carbonitrile] | 9
15 | C[C@@H]1CN(c2ccc(C#N)c3nccnc23)C[C@H](CN2CCN(c3cc4c(cn3)CN[C@@H](C)C4)CC2)O1 (single isomer, unassigned) [Example 84] | 2
16 | C[C@@H]1CN(c2ccc(C#N)c3ncccc23)C[C@H](CN2CCN(c3cnc4c(c3)CNCC4)CC2)O1 [Example 21, 5-[(2R,6S)-2-methyl-6-[[4-(5,6,7,8-tetrahydro-1,6-naphthyridin-3-yl)piperazin-1-yl]methyl]morpholin-4-yl]quinoline-8-carbonitrile] | 9
17 | C[C@@H]1CN(c2ccc(C#N)c3ncccc23)C[C@H](CN2CCN(c3ccc(Cl)cc3)CC2)O1 [Example R2, 5-[(2S,6R)-2-[[4-(4-chlorophenyl)piperazin-1-yl]methyl]-6-methyl-morpholin-4-yl]quinoline-8-carbonitrile, reference compound] | 342
18 | C[C@@H]1CN(c2ccc(C#N)c3ncccc23)C[C@H](CN2CCC(Nc3ncc4c(n3)CNC4)C2)O1 (stereo partly drawn) [Example 32, 5-[(2S,6R)-2-[[3-(6,7-dihydro-5H-pyrrolo[3,4-d]pyrimidin-2-ylamino)pyrrolidin-1-yl]methyl]-6-methyl-morpholin-4-yl]quinoline-8-carbonitrile] | 107
19 | C[C@@H]1CN(c2ccc(C#N)c3ncccc23)C[C@H](CN2CC3(C2)CN(c2cc4c(cn2)CCNC4)CCO3)O1 [Example 48, 5-[(2R,6S)-2-methyl-6-[[8-(5,6,7,8-tetrahydro-2,6-naphthyridin-3-yl)-5-oxa-2,8-diazaspiro[3.5]nonan-2-yl]methyl]morpholin-4-yl]quinoline-8-carbonitrile] | 8
20 | C[C@@H]1CN(c2ccc(C#N)c3ncccc23)C[C@H](CN2CC3(CCN3c3ccc4c(n3)CCNC4)C2)O1 [Example 36, 5-[(2R,6S)-2-methyl-6-[[1-(5,6,7,8-tetrahydro-1,6-naphthyridin-2-yl)-1,6-diazaspiro[3.3]heptan-6-yl]methyl]morpholin-4-yl]quinoline-8-carbonitrile] | 43
21 | C[C@@H]1CN(c2ccc(C#N)c3ncccc23)C[C@H](CN2CCN(c3ccc4c(c3)CN(CCO)C4)CC2)O1 [Example 16, 5-[(2S,6R)-2-[[4-[2-(2-hydroxyethyl)isoindolin-5-yl]piperazin-1-yl]methyl]-6-methyl-morpholin-4-yl]quinoline-8-carbonitrile] | 10
22 | CC1NCc2ncc(N3CCN(C[C@H]4CN(c5ccc(C#N)c6ncccc56)C[C@@H](C)O4)CC3)cc21 (stereo partly drawn) [Example 41, 5-[(2R,6S)-2-methyl-6-[[4-(5-methyl-6,7-dihydro-5H-pyrrolo[3,4-b]pyridin-3-yl)piperazin-1-yl]methyl]morpholin-4-yl]quinoline-8-carbonitrile] | 17
23 | C[C@@H]1CN(c2ccc(C#N)c3ncccc23)C[C@H](CN2CCN(c3ccc4c(n3)CCN(C)C4)CC2)O1 [Example 34, 5-[(2R,6S)-2-methyl-6-[[4-(6-methyl-7,8-dihydro-5H-1,6-naphthyridin-2-yl)piperazin-1-yl]methyl]morpholin-4-yl]quinoline-8-carbonitrile] | 6
